Measurements as given in US11612606B2, “8-aminoisoquinoline compounds and uses thereof” (priority 2018, dated 2023).

molecular target: HPK full length, T165E S171E (Homo sapiens (Human), UniProt Q92918, S171E/T165E); assay: HPK1-FL HTRF enzymatic assay ("HTRF"); format: biochemical; conditions: ATP 1 mM, read-out: HPK1 Ki
Method in brief: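 HTRF detection of phosphorylated biotin-SLP-76 used Eu-anti-pSLP76 antibody and SA-XL665, read after 60 min. The kinase reaction ran 60 min at […], following a 30-min compound preincubation with the full-length enzyme.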

Sequence of HPK full length, T165E S171E (Q92918 whole entry T165E/S171E, looked up): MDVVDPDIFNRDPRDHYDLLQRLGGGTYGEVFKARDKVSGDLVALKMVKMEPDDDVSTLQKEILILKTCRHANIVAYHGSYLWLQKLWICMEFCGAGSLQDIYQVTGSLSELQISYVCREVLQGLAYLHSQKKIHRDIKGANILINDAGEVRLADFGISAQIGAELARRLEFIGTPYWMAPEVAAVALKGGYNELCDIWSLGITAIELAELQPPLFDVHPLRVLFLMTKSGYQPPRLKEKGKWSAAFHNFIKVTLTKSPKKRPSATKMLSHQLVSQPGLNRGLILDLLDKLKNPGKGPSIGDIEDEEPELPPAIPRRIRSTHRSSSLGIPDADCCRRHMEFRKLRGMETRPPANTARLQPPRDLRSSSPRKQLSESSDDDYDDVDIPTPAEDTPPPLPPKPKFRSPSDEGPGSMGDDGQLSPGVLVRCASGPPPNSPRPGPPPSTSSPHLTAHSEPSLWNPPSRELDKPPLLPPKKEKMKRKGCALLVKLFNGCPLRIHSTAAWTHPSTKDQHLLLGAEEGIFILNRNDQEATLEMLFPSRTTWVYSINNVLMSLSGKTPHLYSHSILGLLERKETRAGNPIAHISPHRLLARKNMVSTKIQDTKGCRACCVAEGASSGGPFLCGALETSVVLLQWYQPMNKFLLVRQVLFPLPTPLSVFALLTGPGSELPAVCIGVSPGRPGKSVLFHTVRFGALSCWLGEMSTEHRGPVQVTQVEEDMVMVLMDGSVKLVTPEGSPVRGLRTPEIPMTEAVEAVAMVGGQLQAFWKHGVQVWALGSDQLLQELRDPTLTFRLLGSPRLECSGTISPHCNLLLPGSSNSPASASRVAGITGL

Row | Structure (SMILES) | Ki [nM]
1 | Cc1c(-c2cc3cc(NC(=O)N[C@@H]4CCOC4)ncc3c(N)c2F)cnc2c1NCCC2 [Compound 719a, (R)-1-(8-Amino-7-fluoro-6-(4-methyl-5,6,7,8-tetrahydro-1,5-naphthyridin-3-yl)isoquinolin-3-yl)-3-(tetrahydrofuran-3-yl)urea] | 0.016
2 | CCNC(=O)Nc1cc2cc(-c3cnc4c(c3C)NCCO4)c(F)c(N)c2cn1 [Compound 720, 1-(8-Amino-7-fluoro-6-(8-methyl-2,3-dihydro-1H-pyrido[2,3-b][1,4]oxazin-7-yl)isoquinolin-3-yl)-3-ethylurea] | < 0.013
3 | Cc1c(-c2cc3cc(NC(=O)NC4CN(CC(F)(F)F)C4)ncc3c(N)c2F)cnc2c1NCCO2 [Compound 721, 1-(8-Amino-7-fluoro-6-(8-methyl-2,3-dihydro-1H-pyrido[2,3-b][1,4]oxazin-7-yl)isoquinolin-3-yl)-3-(1-(2,2,2-trifluoroethyl)azetidin-3-yl)urea] | < 0.013
4 | Cc1c(-c2cc3cc(NC(=O)N[C@@H]4CCC[C@@H]4F)ncc3c(N)c2F)cnc2c1NCCO2 [Compound 727a, 1-[8-Amino-7-fluoro-6-(8-methyl-2,3-dihydro-1H-pyrido[2,3-b][1,4]oxazin-7-yl)-3-isoquinolyl]-3-[(1R,2S)-2-fluorocyclopentyl]urea] | < 0.013
5 | Cc1c(-c2cc3cc(NC(=O)N[C@H]4C[C@H](F)C4)ncc3c(N)c2F)cnc2c1NCCC2 [Compound 732a, 1-(8-amino-7-fluoro-6-(4-methyl-5,6,7,8-tetrahydro-1,5-naphthyridin-3-yl)isoquinolin-3-yl)-3-((1r,3r)-3-fluorocyclobutyl)urea] | < 0.013
6 | CO[C@H]1C[C@H](NC(=O)Nc2cc3cc(-c4cnc5c(c4C)NCCO5)c(F)c(N)c3cn2)C1 [Compound 733a, 1-[8-Amino-7-fluoro-6-(8-methyl-2,3-dihydro-1H-pyrido[2,3-b][1,4]oxazin-7-yl)-3-isoquinolyl]-3-(3-methoxycyclobutyl)urea] | < 0.013
7 | Cc1c(-c2cc3cc(NC(=O)N[C@H]4C[C@H]4F)ncc3c(N)c2F)cnc2c1NCCO2 [Compound 734a, 1-[8-Amino-7-fluoro-6-(8-methyl-2,3-dihydro-1H-pyrido[2,3-b][1,4]oxazin-7-yl)-3-isoquinolyl]-3-[(1S,2R)-2-fluorocyclopropyl]urea] | < 0.013
8 | Cc1c(-c2cc3cc(NC(=O)NC4CC5(C4)CN(CC(F)F)C5)ncc3c(N)c2F)cnc2c1NCCC2 [Compound 739, 1-(8-Amino-7-fluoro-6-(4-methyl-5,6,7,8-tetrahydro-1,5-naphthyridin-3-yl)isoquinolin-3-yl)-3-(2-(2,2-difluoroethyl)-2-azaspiro[3.3]heptan-6-yl)urea] | < 0.013
9 | Cc1c(-c2cc3cc(NC(=O)N[C@H]4C[C@]5(CCOC5)C4)ncc3c(N)c2F)cnc2c1NCCC2 [Compound 740a, 1-(8-Amino-7-fluoro-6-(4-methyl-5,6,7,8-tetrahydro-1,5-naphthyridin-3-yl)isoquinolin-3-yl)-3-((2s,4s)-6-oxaspiro[3.4]octan-2-yl)urea] | < 0.013
10 | Cc1c(-c2cc3cc(NC(=O)N[C@H]4C[C@@]5(CCOC5)C4)ncc3c(N)c2F)cnc2c1NCCC2 [Compound 740b, 1-(8-Amino-7-fluoro-6-(4-methyl-5,6,7,8-tetrahydro-1,5-naphthyridin-3-yl)isoquinolin-3-yl)-3-((2r,4r)-6-oxaspiro[3.4]octan-2-yl)urea] | < 0.013
11 | Cc1c(-c2cc3cc(NC(=O)N(C)C)ncc3c(N)c2F)cnc2c1NCCO2 [Compound 742, 3-(8-Amino-7-fluoro-6-(8-methyl-2,3-dihydro-1H-pyrido[2,3-b][1,4]oxazin-7-yl)isoquinolin-3-yl)-1,1-dimethylurea] | 1.12
12 | Cc1c(-c2cc3cc(NC(=O)N4CCCC4)ncc3c(N)c2F)cnc2c1NCCO2 [Compound 745, N-(8-Amino-7-fluoro-6-(8-methyl-2,3-dihydro-1H-pyrido[2,3-b][1,4]oxazin-7-yl)isoquinolin-3-yl)pyrrolidine-1-carboxamide] | 0.29
13 | Cc1c(-c2cc3cc(NC(=O)NC(C)C)ncc3c(N)c2F)cnc2c1NCCO2 [Compound 746, 1-(8-Amino-7-fluoro-6-(8-methyl-2,3-dihydro-1H-pyrido[2,3-b][1,4]oxazin-7-yl)isoquinolin-3-yl)-3-isopropylurea] | < 0.013
14 | Cc1c(-c2cc3cc(NC(=O)N[C@H]4C[C@@H](F)C4)ncc3c(N)c2F)cnc2c1NCCO2 [Compound 748a, 1-(8-Amino-7-fluoro-6-(8-methyl-2,3-dihydro-1H-pyrido[2,3-b][1,4]oxazin-7-yl)isoquinolin-3-yl)-3-((1s,3s)-3-fluorocyclobutyl)urea] | < 0.013
15 | Cc1c(-c2cc3cc(NC(=O)N[C@H]4C[C@H](F)C4)ncc3c(N)c2F)cnc2c1NCCO2 [Compound 748b, 1-(8-Amino-7-fluoro-6-(8-methyl-2,3-dihydro-1H-pyrido[2,3-b][1,4]oxazin-7-yl)isoquinolin-3-yl)-3-((1r,3r)-3-fluorocyclobutyl)urea] | 0.018
16 | Cc1c(N)cncc1-c1cc2cc(NC(=O)NC3CCCC3)ncc2c(N)c1F [Compound 749, 1-(8-Amino-6-(5-amino-4-methylpyridin-3-yl)-7-fluoroisoquinolin-3-yl)-3-cyclopentylurea] | 0.102
17 | Cc1c(-c2cc3cc(NC(=O)N(C)C4CCC4)ncc3c(N)c2F)cnc2c1NCCO2 [Compound 752, 3-(8-Amino-7-fluoro-6-(8-methyl-2,3-dihydro-1H-pyrido[2,3-b][1,4]oxazin-7-yl)isoquinolin-3-yl)-1-cyclobutyl-1-methylurea] | 0.52
18 | Cc1c(-c2cc3cc(NC(=O)N4CC5(CCOCC5)C4)ncc3c(N)c2F)cnc2c1NCCO2 [Compound 753, N-(8-Amino-7-fluoro-6-(8-methyl-2,3-dihydro-1H-pyrido[2,3-b][1,4]oxazin-7-yl)isoquinolin-3-yl)-7-oxa-2-azaspiro[3.5]nonane-2-carboxamide] | 0.039
19 | Cc1c(-c2cc3cc(NC(=O)N4CC(C)(O)C4)ncc3c(N)c2F)cnc2c1NCCO2 [Compound 754] | 0.205

same assay, conditions: HPK1 Ki, ATP 1 mM

Row | Structure (SMILES) | Ki [nM]
20 | CO[C@@H]1CC[C@@H](NC(=O)Nc2cc3cc(-c4cnc5c(c4C)NCCO5)c(F)c(N)c3cn2)C1 [Compound 730a, 1-(8-amino-7-fluoro-6-(8-methyl-2,3-dihydro-1H-pyrido[2,3-b][1,4]oxazin-7-yl)isoquinolin-3-yl)-3-((1R,3R)-3-methoxycyclopentyl)urea] | < 0.013
21 | CO[C@H]1CC[C@H](NC(=O)Nc2cc3cc(-c4cnc5c(c4C)NCCO5)c(F)c(N)c3cn2)C1 [Compound 730b, 1-(8-amino-7-fluoro-6-(8-methyl-2,3-dihydro-1H-pyrido[2,3-b][1,4]oxazin-7-yl)isoquinolin-3-yl)-3-((1S,3S)-3-methoxycyclopentyl)urea] | < 0.013
22 | CO[C@H]1CC[C@@H](NC(=O)Nc2cc3cc(-c4cnc5c(c4C)NCCO5)c(F)c(N)c3cn2)C1 [Compound 730c, 1-(8-amino-7-fluoro-6-(8-methyl-2,3-dihydro-1H-pyrido[2,3-b][1,4]oxazin-7-yl)isoquinolin-3-yl)-3-((1R,3S)-3-methoxycyclopentyl)urea] | < 0.013
23 | CO[C@@H]1CC[C@H](NC(=O)Nc2cc3cc(-c4cnc5c(c4C)NCCO5)c(F)c(N)c3cn2)C1 [Compound 730d, 1-(8-amino-7-fluoro-6-(8-methyl-2,3-dihydro-1H-pyrido[2,3-b][1,4]oxazin-7-yl)isoquinolin-3-yl)-3-((1S,3R)-3-methoxycyclopentyl)urea] | < 0.013
